Results published in article PMC11404609, “Gut microbiota-mediated C-sulfonate metabolism impairs the bioavailability and anti-cholestatic efficacy of andrographolide” (Gut Microbes, 2024).
Counter-ions that a name gives are not always drawn. Like-named read-outs stand apart in the source and are kept apart here.

Columns and labels:
[1] = AP incubation with duodenal perfusate; type: in vitro ADME, rat; conditions: AP 40 μM
Description: To investigate whether HSO3^- is the essential ligand for the C-sulfonate metabolism of AP, duodenal perfusate of SD rat was collected according to the method described in the literature^5. The duodenal perfusate was filtered by 0.22 μm Millex® needle filter, ultrafiltered by Amicon® Ultra filter or placed in an autoclave at 121°C for 2 hours, and then incubated with AP (40 μM) in vitro for 30, 60, 90 and 120 min. In another experiment, duodenal perfusate was autoclaved and then combined with HSO3^- (80 μM) and incubated with AP (40 μM) in vitro for 120 min. At the end of the incubation, 100 μL of ice-cold acetonitrile was quickly added to terminate the reaction. After centrifugation at 13000 rpm for 30 min, the supernatant was collected for UPLC-MS/MS analysis.

[2] = Tissue distribution of AP and APM in rats; type: in vivo
Description: (§1) Control and ABX rats were orally administered a single dose of AP at 120 mg/kg. Control, ABX and germ-free C57BL/6J mice were orally administered a single dose of AP at 100 mg/kg. After 90 min of AP administration, all animals were euthanized, and blood and tissue samples were collected for subsequent analysis.
(§2) An ACQUITY^TM UPLC-MS/MS system equipped with an ACQUITY^TM UPLC BEH C18 Column (50 × 2.1 mm I.D., 1.7 μm, Waters, Milford, MA, USA) was utilized for the quantification of AP and APM as previously described.[47] Briefly, the detection samples (50 μL) were mixed with 50 μL of IS (50 ng/mL). AP and APM were extracted by 400 μL cold methanol. Supernatants were dried under nitrogen stream. Then, the residue was dissolved with 50% methanol in water, centrifuged for 30 min at 13,000 rpm, and 10 µL of the supernatant was subjected to UPLC-MS/MS analysis. The mobile phases consisted of eluent A (water) and eluent B (methanol) with a gradient elution as follows: 0–0.8 min, 10% B; 0.8–1.2 min, 10–90% B; 1.2–5.0 min, 90% B; 5.0–5.5 min, 90–10% B; 5.5–7.0 min, 10% B. The flow rate was 0.3 mL/min and the injection volume of all samples was 10 μL. The quantification of AP, APM and IS was performed by UPLC-MS/MS using an MRM method with the transitions of m/z 349.1→m/z 287.2 for AP, m/z 413.2→m/z 287.2 for APM, m/z 269→m/z 133 for IS.
(§3) AP was administered intravenously and orally to detect the production of the C-sulfonate metabolite APM. In tissue distribution experiment, rats were given AP intravenously (24 mg/kg) or orally (120 mg/kg), while mice received AP intravenously (20 mg/kg) or orally (100 mg/kg). After a 90-minute interval, the animals were sacrificed, and their liver, kidneys, small intestine, and colon were collected for analysis. In pharmacokinetic studies, rats were administered 24 mg/kg of AP intravenously or 120 mg/kg of AP by oral gavage. Blood samples were collected at predetermined time intervals (0, 5, 10, 20, 30, 40, 60, 90, 120, 180, 240, 360, and 480 min), as described, to detect the content of AP and APM by UPLC-MS/MS.

[3] = Tissue distribution of AP and APM in mice; type: in vivo
Description: as §1
After 360 min of AP treatment, all mice were euthanized, and tissue samples were collected for subsequent analysis. […]
as §2, §3

[4] = parameters: method as in PMID 21721007; conditions: AP incubated with rat duodenal perfusate; cited from earlier work
HSO3^− = HSO3^− concentration in the cecum; type: in vivo; conditions: mice
Description: Mice were orally administered APS reductase inhibitor bromocriptine mesylate (20 mg/kg, p.o.) or Na2SO4 (200 mg/kg, p.o.) or saline solution 1 week before AP treatment (a single dose of AP at 100 mg/kg, p.o.). After 360 min of AP treatment, all mice were euthanized, and tissue samples were collected for subsequent analysis. In specific cases, mice were orally administered D. piger suspension (0.2 mL, 1 × 10^9 CFU/mL) or saline solution 2 weeks before AP treatment (a single dose of AP at 100 mg/kg, p.o.).
(§4) For the determination of APS reductase concentration, the supernatant from mouse cecum contents and the D. piger strain were assessed using microorganism APS reductase elisa assay kit (Shanghai Senxingyan Biotechnology Co., Ltd., China), following the instructions provided with the kit. For the determination of HSO3^− concentration, cecum contents from mice or rats were weighed and homogenized in five volumes of normal saline (based on tissue weight). The homogenate was then subjected to centrifugation at 13,000 rpm and 4°C for 15 min. The supernatant (or perfusate) was collected and mixed with 0.2% formaldehyde, 0.05% basic fuchsin, and 0.01% EDTA-Na2 in a ratio of 1:1:1:9 under acidic conditions. To establish a standard curve, different concentrations of NaHSO3 were used. Subsequently, the absorbance of the resulting solutions was measured at a wavelength of 560 nm after 40 min.

[5] = parameters: method as in PMID 36809835, PMID 34142342; conditions: dose-dependent increase; cited from earlier work
APS reductase = APS reductase level in feces by qPCR; type: in vivo; conditions: mice feces, bromocriptine mesylate 20 mg/kg p.o.
Description: Total RNA from frozen livers of Vehicle, AP (200 mg/kg, i.p.), ANIT (50 mg/kg), and ANIT+AP (200 mg/kg, i.p.) groups was extracted using the Animal Total RNA Isolation Kit (FOREGENE, China). cDNA was synthesized using a Color Reverse Transcription Kit (EZBioscience, Roseville, CA, USA). qPCR was performed using SYBR green/Rox qPCR master mix (EZBioscience, Roseville, CA, USA), according to the manufacturer’s instruction. The expression of target genes was normalized to β-actin, and fold changes were calculated using 2^–ΔΔCT method. For bacterial identification, genomic DNA of fecal flora was isolated using the TIANamp Stool DNA Kit (TIANGEN, Beijing, China) and qPCR was performed. The relative abundance and expression of Desulfovibrio spp., D. piger and APS reductase were normalized to the amounts of total bacteria (16S). All primers were synthesized by Tsingke Biotechnology Co., Ltd. (Beijing, China) and were listed in Supplementary Table S1.

intestinal flora of mice = experiment: Co-culturing AP with cecum samples from mice; type: in vitro ADME; conditions: bromocriptine mesylate 20 μg/mL
Description: (§5) The cecum contents from mice were collected and mixed with sterilized anaerobic medium in a ratio of 1.0 g to 10 mL, with gentle agitation. After filtered, the mixed medium containing the intestinal flora was placed in an anaerobic environment and preincubated at 37°C for 30 min before use. Mixed medium with or without APS reductase inhibitor bromocriptine mesylate (20 μg/mL) was incubated with AP (10 μg/mL), while autoclaved mixed medium without APS reductase inhibitor served as the control. Incubation was performed in a shaking incubator at 37°C for 6 h, with strict maintenance of anaerobic condition throughout the process.[44] Similarly, D. piger (0.2 mL, 1 × 10^8 CFU/mL) with or without inhibitor, was incubated with AP for 0, 3, 6, and 12 h, with autoclaved D. piger without inhibitor serving as the control. The reaction was terminated by adding cold methanol contained IS. And then samples were analyzed by UPLC-MS/MS to detect the concentrations of AP and APM. Concentrations of APS reductase and HSO3^− were also determined at the end of incubation.
as §4

[6] = Safety of APS reductase inhibitor (liver, renal, blood lipid indicators); type: in vivo; conditions: mice, 20 mg/kg orally for 14 days
Description: Supplementary Figure 5. […] (A-D) Liver function indicators including ALT, AST, TBA, and TBIL. (E-G) Renal function indicators including CREA, UREA, and UA. (H-K) Blood lipid indicators including TG, TC, HDL-C, and LDL-C. Inhibitor refers to the treatment with the APS reductase inhibitor bromocriptine mesylate at a dosage of 20 mg/kg, administered orally for 14 days in mice. Data are presented as mean ± SEM (n = 8 per group).

D. piger = type: in vitro ADME, Desulfovibrio piger; conditions: D. piger with inhibitor
Description: as §5, with “The reaction was terminated by adding cold methanol contained IS.” left out
For the determination of APS reductase concentration, the supernatant from mouse cecum contents and the D. piger strain were assessed using microorganism APS reductase elisa assay kit (Shanghai Senxingyan Biotechnology Co., Ltd., China), following the instructions provided with the kit. […] Subsequently, the absorbance of the resulting solutions was measured at a wavelength of 560 nm after 40 min.

Question: For C=C1CCC2C(C)(CO)C(O)CCC2(C)C1CC(C1=CCOC1=O)S(=O)(=O)O [APM, 14-deoxy-12(R)-sulfo andrographolide], which APM generation ([1]; autoclaved duodenal perfusate) is on record?
Answer: not detectable

Question: What about the APM generation ([1]; autoclaved perfusate with addition of HSO3^− (80 μM), 120 min) of the same compound?
Answer: production of APM

Question: And the APM generation ([1]; duodenal perfusate after filtration and ultrafiltration)?
Answer: continued APM generation

Question: What about the “levels of APM in plasma and tissues” value ([2]; ABX-treated rats vs Control, AP 120 mg/kg oral) of the same compound?
Answer: reduced levels

Question: What about the “APM in all tissues” value ([2]; rats, oral administration of AP (120 mg/kg)) of the same compound?
Answer: significant amount of APM was detected

Question: What about the “APM in the intestine, liver, and kidneys” value ([2]; rats, tail vein administration of AP (24 mg/kg)) of the same compound?
Answer: undetectable

Question: What about the “concentration of APM in tissues” value ([3]; ABX-treated mice vs Control, AP 100 mg/kg oral) of the same compound?
Answer: decreased

Question: What about the “concentration of APM in tissues” value ([3]; mice colonized with D. piger vs Control, AP 100 mg/kg p.o.) of the same compound?
Answer: increase

Question: What about the “level of APM in the intestine and liver” value ([3]; mice of pharmacological experiment, AP 200 mg/kg, following ABX treatment vs Control) of the same compound?
Answer: decreased significantly

Question: What about the “APM within the small intestine and liver” value ([3]; mice, AP 200 mg/kg p.o. with APS reductase inhibitor vs without) of the same compound?
Answer: decrease

Question: And the “APM in all tissues” value ([3]; mice, oral administration of AP (100 mg/kg))?
Answer: significant amount of APM was detected

Question: And the “APM in the intestine, liver, and kidneys” value ([3]; mice, tail vein administration of AP (20 mg/kg))?
Answer: undetectable

Question: And the APM generation [4]?
Answer: large amounts

Question: Which “HSO3^− content in the cecum” value (HSO3^−; Na2SO4 200 mg/kg p.o.) does the source give for O=S(=O)([O-])[O-].[Na+].[Na+] [Na2SO4, sodium sulfate] here?
Answer: significant increase

Question: Which “pruritus, share of treated patients” value [5] does the source give for CC[C@H]1[C@@H](O)[C@@H]2[C@H](CC[C@]3(C)[C@@H]([C@H](C)CCC(=O)O)CC[C@@H]23)[C@@]2(C)CC[C@@H](O)C[C@@H]12 [OCA, obeticholic acid] here?
Answer: roughly 40%

Question: What does the source list for CC(C)C[C@H]1C(=O)N2CCC[C@H]2[C@]2(O)O[C@](NC(=O)[C@@H]3C=C4c5cccc6[nH]c(Br)c(c56)C[C@H]4N(C)C3)(C(C)C)C(=O)N12 [bromocriptine mesylate]?
Answer: APS reductase level (APS reductase): decrease; effect on conversion of AP into APM by the intestinal flora (intestinal flora of mice; AP 10 μg/mL, 6 h): effectively impeded; concentrations of APS reductase and HSO3^− (intestinal flora of mice; co-culture of AP with cecum samples): significant decrease; damage to organism (liver function, renal function, blood lipid indicators) [6]: did not induce damage to organism; effect on D. piger metabolism of AP into APM (APS reductase and HSO3^− production) (D. piger): significantly inhibited; HSO3^− content in the cecum (HSO3^−; bromocriptine mesylate 20 mg/kg p.o.): decrease
